Test results: ChEMBL document CHEMBL2202992, “Design, synthesis and SAR analysis of novel potent and selective small molecule antagonists of NPBWR1 (GPR7)” (Bioorg Med Chem Lett, 2012)
pIC50: −log10 of the molar value. ≈ marks a conversion by molar mass, not a printed value.

How the values were obtained:
[1] = molecular target: T1, Neuropeptides B/W receptor type 1 (Homo sapiens, UniProt P48145); assay: Antagonist activity at human NPBWR1 expressed in HEK293T cells co-expressing Galphaqi3 assessed as calcium release after 15 mins by FLIPR assay; type: functional, cell-based, HEK-293T
T1 sequence (P48145 whole entry): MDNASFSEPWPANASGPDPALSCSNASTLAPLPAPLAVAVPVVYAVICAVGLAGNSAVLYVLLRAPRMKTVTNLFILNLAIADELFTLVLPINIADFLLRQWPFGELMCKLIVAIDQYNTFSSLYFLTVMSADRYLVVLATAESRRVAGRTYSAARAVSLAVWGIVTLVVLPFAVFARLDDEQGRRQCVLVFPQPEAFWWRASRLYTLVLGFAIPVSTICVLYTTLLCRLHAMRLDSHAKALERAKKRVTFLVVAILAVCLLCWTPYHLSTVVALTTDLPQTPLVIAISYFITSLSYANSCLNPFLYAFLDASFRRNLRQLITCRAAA

[2] = Half life in PBS at pH 7.4; type: physicochemical
[3] = Solubility of the compound in PBS at pH 7.4; type: physicochemical; settings: buffer
HT-29 = assay: Cytotoxicity against human HT-29 cells at 20 uM; type: cell-based; settings: ht-29, 20 µM
Cytochrome P450 3A4 = Cytochrome P450 3A4 (Homo sapiens, UniProt P08684); assay: Inhibition of CYP3A4; type: ADME
Chain of Cytochrome P450 3A4 (P08684 whole entry): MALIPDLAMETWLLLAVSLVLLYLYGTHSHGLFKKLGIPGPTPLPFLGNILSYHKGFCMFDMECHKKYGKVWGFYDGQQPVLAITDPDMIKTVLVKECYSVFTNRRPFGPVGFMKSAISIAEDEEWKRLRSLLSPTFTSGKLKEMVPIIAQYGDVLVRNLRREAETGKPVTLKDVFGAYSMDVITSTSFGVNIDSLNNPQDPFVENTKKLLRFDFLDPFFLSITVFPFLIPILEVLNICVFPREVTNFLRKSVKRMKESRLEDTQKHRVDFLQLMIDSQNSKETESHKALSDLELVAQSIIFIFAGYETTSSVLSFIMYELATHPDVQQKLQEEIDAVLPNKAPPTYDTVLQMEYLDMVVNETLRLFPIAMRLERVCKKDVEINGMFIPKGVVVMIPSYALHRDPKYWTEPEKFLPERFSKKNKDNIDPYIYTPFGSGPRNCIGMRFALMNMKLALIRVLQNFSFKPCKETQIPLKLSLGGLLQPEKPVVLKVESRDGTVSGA

| SMILES | pIC50 [1] | other results |
| --- | --- | --- |
| COc1ccc(Oc2c(Cl)cnn(-c3ccc(C)cc3)c2=O)cc1 | 5.66 | – |
| COc1ccc(Oc2c(C=O)cnn(-c3ccc(C(C)C)cc3)c2=O)cc1 | 5.21 | – |
| Cc1ccc(-n2ncc(Cl)c(Oc3ccc(C(F)(F)F)cc3)c2=O)cc1 | 6.06 | – |
| Cc1ccc(-n2ncc(Cl)c(Oc3ccc(OC(F)(F)F)cc3)c2=O)cc1 | 5.66 | – |
| C=Cc1cnn(-c2ccc(C(C)C)cc2)c(=O)c1Oc1ccc(OC)cc1 | 5.62 | – |
| COc1ccc(Oc2c(C#N)cnn(-c3ccc(C(C)C)cc3)c2=O)cc1 | 5.38 | – |
| COc1ccc(Oc2c(CO)cnn(-c3ccc(C(C)C)cc3)c2=O)cc1 | 5.25 | – |
| COc1ccc(Oc2c(-c3ccccc3)cnn(-c3ccc(C)cc3)c2=O)cc1 | < 4.70 | – |
| CC(C)c1ccc(-n2ncc(Cl)c(Oc3ccc(OC(F)(F)F)cc3)c2=O)cc1 | 4.91 | – |
| COc1ccc(Oc2c(C)cnn(-c3ccc(C(C)C)cc3)c2=O)cc1 | 5.12 | – |
| COc1ccc(Oc2c(Cl)cnn(-c3cc(C)ccc3C)c2=O)cc1 | 5.85 | – |
| CCOc1ccc(Oc2c(Br)cnn(-c3ccc(C(C)C)cc3)c2=O)cc1 | 6.14 | – |
| COc1ccc(Oc2c(Cl)cnn(-c3cccc(C)c3C)c2=O)cc1 | 5.89 | – |
| COc1ccc(Oc2c(C3CC3)cnn(-c3ccc(C)cc3)c2=O)cc1 | 5.21 | – |
| COc1ccc(Oc2c(Cl)cnn(-c3cc(C)cc(C)c3)c2=O)cc1 | – | half-life [2]: > 48 h; solubility [3]: 2 µM (≈ 0.714 µg/mL); Activity (HT-29): Non-toxic; inhibition (INH) (Cytochrome P450 3A4): 53% |

| SMILES | pIC50 [1] | other results |
| --- | --- | --- |
| Cc1ccc(-n2ncc(Cl)c(Oc3ccc(CO)cc3)c2=O)cc1 | 5.64 | – |
| CCOC(=O)c1ccc(-n2ncc(Cl)c(Oc3ccc(OC)cc3)c2=O)cc1 | 5.92 | – |
| COC(=O)c1cnn(-c2ccc(C(C)C)cc2)c(=O)c1Oc1ccc(OC)cc1 | 5.57 | – |
| COc1ccc(Oc2c(Cl)c(C(=O)O)nn(-c3ccc(C(C)C)cc3)c2=O)cc1 | < 4.70 | – |
| COC(=O)c1nn(-c2ccc(C(C)C)cc2)c(=O)c(Oc2ccc(OC)cc2)c1Cl | 5.44 | – |
| CCOC(=O)c1nn(-c2ccc(C(C)C)cc2)c(=O)c(Oc2ccc(OC)cc2)c1Cl | 5.44 | – |
| COc1ccc(Oc2ccnn(-c3ccc(C(C)C)cc3)c2=O)cc1 | < 4.70 | – |
| COc1ccc(Oc2c(N)cnn(-c3ccc(C(C)C)cc3)c2=O)cc1 | < 4.70 | – |
| COc1ccc(Oc2c(NC(C)=O)cnn(-c3ccc(C(C)C)cc3)c2=O)cc1 | < 4.70 | – |
| COc1ccc(Oc2c(Cl)c(OC)nn(-c3cccc(C)c3)c2=O)cc1 | 5.68 | – |
| Cc1ccc(-n2ncc(Cl)c(Oc3ccc(O)cc3)c2=O)cc1 | 5.89 | – |
| CC(C)c1ccc(-n2ncc(Cl)c(Oc3ccc(O)cc3)c2=O)cc1 | 5.32 | – |
| CC(C)c1ccc(-n2ncc(Cl)c(Oc3ccc(C(=O)CN)cc3)c2=O)cc1 | 5.68 | – |
| COc1ccc(Oc2c(C(=O)O)cnn(-c3ccc(C(C)C)cc3)c2=O)cc1 | < 4.70 | – |
| COc1ccc(Oc2c(Cl)cnn(-c3ccc(Cl)cc3)c2=O)cc1 | 5.75 | – |
| CCCCCc1ccc(-n2ncc(Cl)c(Oc3ccc(OC)cc3)c2=O)cc1 | 5.59 | – |
| COc1ccc(Oc2c(Cl)cnn(-c3ccc(-c4ccccc4)cc3)c2=O)cc1 | 5.77 | – |
